Results published in patent US20140294894A1 (priority 2007, published 2014).
Ends that are not written are not given here.

Key:
tetanus toxin = test system: tetanus toxin; parameters: species or system mice; details: mouse, in vivo
Spleen cells = assay: Cytokine assay; assay type: cell-based, mice
splenocytes = assay type: cell-based, mice
TT = test system: TT; parameters: species or system mice; details: mouse, in vivo
[1] = Experiment 1, following restimulation

FCIGRL [AT1002]
protective antibody levels compared to immunization with TT alone (tetanus toxin): increased protective antibody levels
IL-5 production compared to groups immunized with toxoid (TT) alone (Spleen cells; [1]): does not increase production
IL-10 production compared to groups immunized with toxoid (TT) alone (Spleen cells; [1]): does not increase production
IL-6 production by spleen cells compared to groups immunized with toxoid (TT) alone (Spleen cells; Experiment 1, restimulation with TT 0-100 μg/ml, FIG. 8A): does increase IL-6 production
IFN-γ production by spleen cells compared to groups immunized with toxoid (TT) alone (Spleen cells; Experiment 1, restimulation with TT 0-100 μg/ml, FIG. 8B): does not increase IFN-γ production
IL-6 production by spleen cells compared to groups immunized with toxoid (TT) alone (Spleen cells; Experiment 2, restimulation with TT 0-100 μg/ml, FIG. 14A): does increase IL-6 production
proliferation of spleen cells on restimulation with immunizing antigen (Stimulation Index) (splenocytes): induces the strongest cell proliferation response
anti-tetanus IgG subclass titers (IgG1, IgG2a): shift toward a Th1 response (TT): No indication of a shift toward a Th1 response
anti-tetanus response (tetanus IgG titer) compared to tetanus toxoid alone (TT): significantly enhances the anti-tetanus response in a dose-dependent manner
anti-tetanus response (tetanus IgG titer), effect of higher dose (TT): does not increaser the anti-tetanus response
